Source: US5096884A, “Glidobactin PF-1 peptide antibiotics” (Bristol-Myers Squibb Company, priority 1990, dated 1992)
Converted amounts (≈) assume the structure as drawn. Where two headings read alike, the source gives them in different places.

What was measured:
[1] = test system: P388 Leukemia (ip); conditions: for T/C % of MST: ip, QD1→9, ≥125% significant; for maximum T/C value: P388 leukemia, ip daily for 9 days
Procedure: (§1) In vivo antitumor activity of glidobactin PF-1 was determined in experimental mouse tumor systems. Female CDF1 and male BDF1 mice were intraperitoneally inoculated with 0.4 mL of diluted ascitic fluid containing 10^6 lymphocytic leukemia P388 cells and 0.5 mL of 10% melanotic melanoma B16 brei, respectively. Test compounds were intraperitoneally administered daily for 9 days starting from 1 day after the tumor implantation.

[2] = test system: protein synthesis in L1210 murine leukemia cells; assay: Inhibition of macromolecule synthesis, 3H-leucine incorporation; assay type: cell-based; conditions: for IC50, Protein synthesis / effect on protein synthesis (in words): L1210 cells; for IC50, Protein synthesis: 3H-leucine, 4 hrs
Procedure: (§2) Inhibitory effects of glidobactins A and PF-1 on macromolecule biosynthesis (DNA, RNA, and protein) were determined in cultured L1210 murine leukemia cells. The cells (5×10^5 cells/mL) were incubated with test compounds at 37° C. for 15 min and further incubated for 4 hrs after the addition of labeled precursor, ^3 H-thymidine, ^14 C-uridine, or ^3 H-leucine into the cultured mixture. After washing with chilled 5% trichloroacetic acid solution, the radioactivity incorporated into the acid-insoluble fraction of the cells was determined by a liquid scintillation counter.

[3] = test system: RNA synthesis in L1210 murine leukemia cells; assay: Inhibition of macromolecule synthesis, 14C-uridine incorporation; assay type: cell-based; conditions: for IC50, RNA synthesis: L1210 cells, 14C-uridine, 4 hrs; for inhibitory effect on RNA synthesis (in words): at 100 μg/mL, the highest concentration tested
Procedure: as §2

[4] = test system: B16-F10 (murine melanoma) cells; assay type: cell-based; conditions: for IC50: B16-F10 cells, 72 hrs
Procedure: (§3) Glidobactin PF-1 and glidobactin A were tested for in vitro cytotoxicity against murine tumor cell lines and for in vivo antitumor activity in mice. Mitomycin C was used as a reference compound in both in vitro and in vivo experiments. B16-F10 (murine melanoma) cells were grown to the logarithmic phase in an enriched Eagle minimum essential medium supplemented with fetal calf serum (FCS, 10%) and kanamycin (60 μg/ml). P388 (murine lymphocytic leukemia) cells were in RPMI1640 medium supplemented with FCS (10%), penicillin (100 U/ml), and streptomycin (100 μg/ml). B16-F10 and P388 cells were harvested and implanted into wells of a 96-well (for B16-F10 cells) and a 24-well (for P388 cells) tissue culture plate with test materials at the inoculum sizes of 3×10^4 and 2×10^4 cells/mL, respectively. They were incubated at 37° C. in a humidified atmosphere of 5% CO2 and 95% air for 72 hrs. The cytotoxicity against B16-F10 cells was colorimetrically determined at 540 nm after staining viable cells with 0.006% neutral red solution. As for P388 cells, the number of viable cells was determined by a Coulter counter.

[5] = test system: DNA synthesis in L1210 murine leukemia cells; assay: Inhibition of macromolecule synthesis, 3H-thymidine incorporation; assay type: cell-based; conditions: for IC50, DNA synthesis: L1210 cells, 3H-thymidine, 4 hrs; for inhibitory effect on DNA synthesis (in words): at 100 μg/mL, the highest concentration tested
Procedure: as §2

[6] = test system: B16 Melanoma (ip); conditions: for T/C % of MST: ip, QD1→9, ≥125% significant; for antitumor activity against ip-B16 melanoma (in words): at the doses tested
Procedure: as §1

[7] = test system: P388 (murine lymphocytic leukemia) cells; assay type: cell-based; conditions: for IC50: P388 cells, 72 hrs
Procedure: as §3

[8] = test system: Candida albicans IAM 4888; assay: MIC by serial agar dilution method; assay type: cell-based; conditions: Sabouraud dextrose agar; inoculum 10^5-10^7
[9] = test system: Mucor spinosus IFO 5317; assay: MIC by serial agar dilution method; assay type: cell-based; conditions: Sabouraud dextrose agar; inoculum 10^5-10^7
[10] = test system: Bacillus subtilis PCI 219; assay: MIC by serial agar dilution method; assay type: cell-based; conditions: Nutrient agar; inoculum 10^4 CFU/mL
[11] = test system: fungi; assay: In vitro antifungal activity; assay type: cell-based
Procedure: (§4) The minimum inhibitory concentrations (MIC's) of glidobactin PF-1 were determined for various microorganisms by a serial agar dilution method. Nutrient agar (Eiken) was used for bacteria and Sabouraud dextrose agar (Difco) for fungi. The inoculum size was adjusted to 10^4 CFU/mL for bacteria and 10^5 -10^7 for fungi. Invitro antibacterial and antifungal activities of glidobactin PF-1 are shown in Table 3 together with the activities found with glidobactin C.

[12] = test system: Candida albicans A9540; assay: MIC by serial agar dilution method; assay type: cell-based; conditions: Sabouraud dextrose agar; inoculum 10^5-10^7
[13] = test system: Blastomyces dermatitidis IFO 8144; assay: MIC by serial agar dilution method; assay type: cell-based; conditions: Sabouraud dextrose agar; inoculum 10^5-10^7
[14] = test system: Sporothrix schenckii IFO 8158; assay: MIC by serial agar dilution method; assay type: cell-based; conditions: Sabouraud dextrose agar; inoculum 10^5-10^7
[15] = test system: Pseudomonas aeruginosa A9930; assay: MIC by serial agar dilution method; assay type: cell-based; conditions: Nutrient agar; inoculum 10^4 CFU/mL
[16] = test system: Klebsiella pneumoniae D 11; assay: MIC by serial agar dilution method; assay type: cell-based; conditions: Nutrient agar; inoculum 10^4 CFU/mL
[17] = test system: Fusarium moniliforme A2284; assay: MIC by serial agar dilution method; assay type: cell-based; conditions: Sabouraud dextrose agar; inoculum 10^5-10^7
[18] = test system: Escherichia coli NIHJ; assay: MIC by serial agar dilution method; assay type: cell-based; conditions: Nutrient agar; inoculum 10^4 CFU/mL
[19] = test system: Aspergillus fumigatus IAM 2530; assay: MIC by serial agar dilution method; assay type: cell-based; conditions: Sabouraud dextrose agar; inoculum 10^5-10^7
[20] = test system: Piricularia oryzae D9; conditions: Sabouraud dextrose agar; inoculum 10^5-10^7
[21] = test system: Trichophyton mentagrophytes D155; assay: MIC by serial agar dilution method; assay type: cell-based; conditions: Sabouraud dextrose agar; inoculum 10^5-10^7
[22] = test system: Streptoccoccus faecalis A9612; assay: MIC by serial agar dilution method; assay type: cell-based; conditions: Nutrient agar; inoculum 10^4 CFU/mL
[23] = test system: Cryptococcus neoformans D49; assay: MIC by serial agar dilution method; assay type: cell-based; conditions: Sabouraud dextrose agar; inoculum 10^5-10^7
[24] = test system: Staphyloccoccus aureus 209P; assay: MIC by serial agar dilution method; assay type: cell-based; conditions: Nutrient agar; inoculum 10^4 CFU/mL
[25] = test system: bacteria tested; assay: In vitro antibacterial activity; assay type: cell-based; conditions: at 100 μg/ml
Procedure: as §4

Structure (SMILES): CO[C@@]12[C@H](COC(N)=O)C3=C(C(=O)C(C)=C(N)C3=O)N1C[C@@H]1N[C@@H]12 [Mitomycin C]
- T/C % of MST ([1]; P388, 0.031 mg/kg/day): 115%
- T/C % of MST ([1]; P388, 0.063 mg/kg/day): 140%
- T/C % of MST ([1]; P388, 0.13 mg/kg/day): 145%
- T/C % of MST ([1]; P388, 0.25 mg/kg/day): 170%
- T/C % of MST ([1]; P388, 0.5 mg/kg/day): 190%
- T/C % of MST ([1]; P388, 1 mg/kg/day): 225%
- IC50, Protein synthesis [2]: > 100 µg/mL
- IC50, RNA synthesis [3]: > 100 µg/mL
- IC50 [4]: 0.50 µg/mL (≈ 1.5 µM)
- IC50, DNA synthesis [5]: 1.7 µg/mL (≈ 5.08 µM)

Structure (SMILES): CCCCCCC/C=C/C=C/C(=O)N[C@H](C(=O)N[C@H]1C[C@@H](O)CCNC(=O)/C=C/[C@H](C)NC1=O)[C@@H](C)O [Glidobactin A, glidobactin A]
- T/C % of MST ([6]; B16, 0.13 mg/kg/day): 97%
- T/C % of MST ([6]; B16, 0.25 mg/kg/day): 100%
- T/C % of MST ([6]; B16, 0.5 mg/kg/day): 113%
- T/C % of MST ([6]; B16, 1 mg/kg/day): 116%
- antitumor activity against ip-B16 melanoma (in words) [6]: no significant antitumor activity
- T/C % of MST ([1]; P388, 0.031 mg/kg/day): 100%
- T/C % of MST ([1]; P388, 0.063 mg/kg/day): 110%
- T/C % of MST ([1]; P388, 0.13 mg/kg/day): 130%
- T/C % of MST ([1]; P388, 0.25 mg/kg/day): 150%
- T/C % of MST ([1]; P388, 0.5 mg/kg/day): 155%
- T/C % of MST ([1]; P388, 1 mg/kg/day): 190%
- maximum T/C value [1]: 190%
- effect on protein synthesis (in words) [2]: inhibited protein synthesis
- IC50, Protein synthesis [2]: 0.03 µg/mL (≈ 0.0576 µM)
- IC50, RNA synthesis [3]: > 100 µg/mL
- inhibitory effect on RNA synthesis (in words) [3]: no significant inhibitory effect
- cytotoxicity (in words) [4]: potent cytotoxicity
- IC50 [4]: 0.04 µg/mL (≈ 0.0768 µM)
- cytotoxicity (in words) [7]: potent cytotoxicity
- IC50 [7]: 0.008 µg/mL (≈ 0.0154 µM)
- IC50, DNA synthesis [5]: > 100 µg/mL
- inhibitory effect on DNA synthesis (in words) [5]: no significant inhibitory effect

Structure (SMILES): CCC=CCC=CCCC=CC=CC(=O)NC(C(=O)NC1CC(O)CCNC(=O)C=CC(C)NC1=O)C(C)O (stereo not shown) [Glidobactin PF-1, glidobactin PF-1]
- MIC [8]: 12.5 µg/mL (≈ 22.9 µM)
- MIC [9]: 3.1 µg/mL (≈ 5.69 µM)
- solubility (in words) (in methanol, ethanol, n-butanol, and dimethyl sulfoxide): soluble
- solubility (in words) (in n-hexane and water): insoluble
- MIC [10]: > 100 µg/mL
- activity against fungi (in words) [11]: moderate activity
- intrinsic antifungal activity compared with glidobactin C (in words) ([11]; relative to glidobactin C): considerably weaker
- MIC [12]: 6.3 µg/mL (≈ 11.6 µM)
- MIC [13]: 12.5 µg/mL (≈ 22.9 µM)
- T/C % of MST ([6]; B16, 0.13 mg/kg/day): 103%
- T/C % of MST ([6]; B16, 0.25 mg/kg/day): 118%
- T/C % of MST ([6]; B16, 0.5 mg/kg/day): 113%
- T/C % of MST ([6]; B16, 1 mg/kg/day): 111%
- antitumor activity against ip-B16 melanoma (in words) [6]: no significant antitumor activity
- T/C % of MST ([1]; P388, 0.016 mg/kg/day): 118%
- T/C % of MST ([1]; P388, 0.031 mg/kg/day): 129%
- T/C % of MST ([1]; P388, 0.063 mg/kg/day): 133%
- T/C % of MST ([1]; P388, 0.13 mg/kg/day): 160%
- T/C % of MST ([1]; P388, 0.25 mg/kg/day): 170%
- T/C % of MST ([1]; P388, 0.5 mg/kg/day): 174%
- T/C % of MST ([1]; P388, 1 mg/kg/day): 130%
- maximum T/C value [1]: 174%
- potency against P388 relative to glidobactin A ([1]; in vivo P388, relative to glidobactin A): approximately 4 times
- MIC [14]: > 50 µg/mL
- effect on protein synthesis (in words) [2]: inhibited protein synthesis
- IC50, Protein synthesis [2]: 0.07 µg/mL (≈ 0.129 µM)
- inhibitory activity on protein synthesis relative to glidobactin A ([2]; relative to glidobactin A): approximately half
- MIC [15]: > 100 µg/mL
- MIC [16]: > 100 µg/mL
- MIC [17]: > 50 µg/mL
- MIC [18]: > 100 µg/mL
- IC50, RNA synthesis [3]: > 100 µg/mL
- inhibitory effect on RNA synthesis (in words) [3]: no significant inhibitory effect
- cytotoxicity (in words) [4]: potent cytotoxicity
- IC50 [4]: 0.07 µg/mL (≈ 0.129 µM)
- cytotoxicity (in words) [7]: potent cytotoxicity
- IC50 [7]: 0.010 µg/mL (≈ 0.0184 µM)
- MIC [19]: 12.5 µg/mL (≈ 22.9 µM)
- MIC [20]: 12.5 µg/mL (≈ 22.9 µM)
- MIC [21]: 12.5 µg/mL (≈ 22.9 µM)
- MIC [22]: > 100 µg/mL
- IC50, DNA synthesis [5]: > 100 µg/mL
- inhibitory effect on DNA synthesis (in words) [5]: no significant inhibitory effect
- MIC [23]: 25 µg/mL (≈ 45.9 µM)
- MIC [24]: > 100 µg/mL
- inhibition of the bacteria tested (in words) [25]: did not inhibit

Structure (SMILES): CCCCCCCCC/C=C/C=C/C(=O)N[C@H](C(=O)N[C@H]1C[C@@H](O)CCNC(=O)/C=C\[C@H](C)NC1=O)[C@@H](C)O [Glidobactin C, glidobactin C]
- MIC [8]: 0.4 µg/mL (≈ 0.729 µM)
- MIC [9]: 0.8 µg/mL (≈ 1.46 µM)
- MIC [10]: > 100 µg/mL
- MIC [12]: 0.2 µg/mL (≈ 0.364 µM)
- MIC [13]: 3.1 µg/mL (≈ 5.65 µM)
- MIC [14]: > 50 µg/mL
- MIC [15]: > 100 µg/mL
- MIC [16]: > 100 µg/mL
- MIC [17]: > 50 µg/mL
- MIC [18]: > 100 µg/mL
- MIC [19]: 1.6 µg/mL (≈ 2.92 µM)
- MIC [20]: 6.3 µg/mL (≈ 11.5 µM)
- MIC [21]: 0.8 µg/mL (≈ 1.46 µM)
- MIC [22]: > 100 µg/mL
- MIC [23]: 0.8 µg/mL (≈ 1.46 µM)
- MIC [24]: > 100 µg/mL
